# Assay results from patent publication US20100234381A1, “BIOMARKERS AND METHODS FOR DETERMINING SENSITIVITY TO VASCULAR ENDOTHELIAL GROWTH FACTOR RECEPTOR-2 MODULATORS” (Bristol-Myers Squibb Company, priority 2007, published 2010).
# pIC50: −log10 of the molar value.
# Key:
# [1] = tested on: FGF2-stimulated cancer cell lines; test: FGF2-stimulated tumor cell proliferation, panel of cancer cell lines; format: cell-based; details: panel of 16 cell lines; FGF2 2.5 ng/ml; read-out: IC50, FGF2-induced tumor cell proliferation in vitro
# Procedure: […], GEO, L2987, 786-0, A549, A498, Du145, PANC-1, ACHN, HT1197, CALU6, SKOV3, 769-[…], HCT166 and UMUC3. […] Gene expression profiling was performed on RNA samples from tumor cell lines using AFFYMETRIX® GeneChip System.
# [2] = tested on: VEGF gene expression; test: VEGF gene expression, AFFYMETRIX human arrays
# [3] = tested on: ovarian cancer cell line A2870; test: VEGF-induced proliferation of ovarian cancer cell line A2870; format: cell-based; details: data not shown
# Procedure: (§1) Cell proliferation was determined by a modified MTS assay with […] 96® Aqueous One Solution Reagent (Promega, Madison, Wis.). A2780 ovarian cancer cells, MIAPAC-2 pancreatic cancer cells, or GEO colon cancer cells were seeded on 96-well flat-bottomed tissue culture plates (Becton Dickinson, San Jose, Calif.) at a concentration of 3×10^3 cells/well in RPMI 1640 with 1% fetal bovine serum at 37° C. in 5% carbon dioxide/95% air in the presence of 100 units/ml penicillin, 100 μg/ml streptomycin and allowed to adhere to the plate overnight. Then the cells were incubated in the presence of each concentration of 0 (control), 0.3, 0.6, 1.25, 2.5, 5, 10 ng/ml of FGF2 or VEGF for another 72 hours at 37° C. in a humidified atmosphere of 5% CO2 in air. After treatment, 20 μl of […] 96® Aqueous One Solution Reagent was dropped into each well of plates. After 180 minutes incubation, the optical densities (OD) of these samples were directly measured using SPECTRAMAX® plus (Molecular Device, California) and reference wavelength of 490 nm. The OD of control samples was regarded as 100. Each condition was performed with 4 wells and experiment was repeated twice.
# [4] = tested on: FGF2 growth factor gene expression; test: FGF2 gene expression, AFFYMETRIX human arrays
# [5] = tested on: pancreatic cancer cell line MIAPAC-2; test: VEGF-induced proliferation of pancreatic cancer cell line MIAPAC-2; format: cell-based; details: data not shown
# Procedure: as §1
# [6] = tested on: A2780 ovarian cancer cells; test: FGF2-induced proliferation of A2780 ovarian cancer cells (modified MTS assay); format: cell-based; details: A2780 ovarian cancer cells
# Procedure: as §1
# [7] = tested on: MIAPAC-2 pancreatic cancer cells; test: FGF2-induced proliferation of MIAPAC-2 pancreatic cancer cells (modified MTS assay); format: cell-based; details: MIAPAC-2 pancreatic cancer cells
# Procedure: as §1
pIC50 [1],Compound,modulation of VEGF gene expression levels [2],effect on VEGF-induced cellular proliferation [3],modulation of FGF2 growth factor gene expression levels [4],effect on VEGF-induced cellular proliferation [5],effect on FGF2-induced cellular proliferation [6],effect on FGF2-induced cellular proliferation [7]
~5.00,"CCN(CC)CCNC(=O)c1c(C)[nH]c(/C=C2\C(=O)Nc3ccc(F)cc32)c1C [sunitinib, reference compound]",–,–,–,–,–,–
–,bevacizumab [reference compound],modulated VEGF gene expression levels,did not show significant sensitivity,did not,did not show significant sensitivity,did not show significant sensitivity,did not show significant sensitivity
